# Assay results as given in publication PMC6990405, “Synthesis and Structure–Activity relationship of 1-(5-isoquinolinesulfonyl)piperazine analogues as inhibitors of Mycobacterium tuberculosis IMPDH” (European Journal of Medicinal Chemistry, 2019).
# Where two headings read alike, the source gives them in different places.
# Key:
# Mtb IMPDH = target: T1, Mtb IMPDH (Mycobacterium tuberculosis, UniProt P9WKI7); assay: IMPDH biochemical assay (inhibition of Mtb GuaB2); settings: Mtb IMPDH (GuaB2) enzyme
# T1 construct: made in house
# T1 sequence (P9WKI7 whole entry, looked up): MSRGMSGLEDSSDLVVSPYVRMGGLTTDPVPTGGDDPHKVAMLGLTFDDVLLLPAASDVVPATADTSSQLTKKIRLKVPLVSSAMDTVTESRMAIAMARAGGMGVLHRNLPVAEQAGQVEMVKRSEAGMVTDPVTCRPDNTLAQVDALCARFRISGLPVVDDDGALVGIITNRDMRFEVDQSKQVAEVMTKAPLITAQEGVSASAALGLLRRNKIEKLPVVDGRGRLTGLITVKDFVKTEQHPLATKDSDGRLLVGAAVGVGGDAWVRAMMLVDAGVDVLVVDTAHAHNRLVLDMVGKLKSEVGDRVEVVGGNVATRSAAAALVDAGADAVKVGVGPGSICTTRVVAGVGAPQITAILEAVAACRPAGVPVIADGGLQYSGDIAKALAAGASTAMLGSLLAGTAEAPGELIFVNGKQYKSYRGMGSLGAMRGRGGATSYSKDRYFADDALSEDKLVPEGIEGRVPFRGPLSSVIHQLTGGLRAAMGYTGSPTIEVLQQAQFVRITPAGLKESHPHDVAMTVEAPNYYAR
# [1] = tested on: wild-type M. tuberculosis strain H37Rv; assay: microbe, parasite or virus in culture; format: cell-based
# [2] = Mycobacterium tuberculosis, H37RV, wild-type M. tuberculosis H37Rv, read-out: MIC90 against WT
# [3] = Mycobacterium tuberculosis, H37RV, read-out: MIC90 against WT, wild-type M. tuberculosis H37Rv
# [4] = wild-type M. tuberculosis H37Rv, read-out: MIC90 against WT
Structure (SMILES),IC50 (Mtb IMPDH),"MIC90 [1, 2]","MIC90 [1, 3]","MIC90 [1, 4]"
"O=C(C1CCCCC1)N1CCN(S(=O)(=O)c2cccc3cnccc23)CC1 [Compound 1, Cyclohexyl[4-(isoquinoline-5-sulfonyl)piperazin-1-yl]methanone]",100 ± 10 nM,2 µM,–,–
"O=C(NCCNS(=O)(=O)c1cccc2cnccc12)C1CCCCC1 [Compound 2, N-{2-[(isoquinoline-5-sulfonyl)amino]ethyl}cyclohexanecarboxamide]",500 ± 20 nM,–,50 µM,–
"CC1CN(S(=O)(=O)c2cccc3cnccc23)CCN1C(=O)C1CCCCC1 (stereo not shown) [Compound 3, Cyclohexyl[4-(isoquinoline-5-sulfonyl)-2-methylpiperazin-1-yl]methanone]",> 100000 nM,100 µM,–,–
"O=C(NC1CCN(S(=O)(=O)c2cccc3cnccc23)CC1)C1CCCCC1 [Compound 4, N-[1-(isoquinoline-5-sulfonyl)piperidin-4-yl]cyclohexanecarboxamide]",9700 ± 300 nM,> 100 µM,–,–
"O=C(C1CCCCC1)N1CCC(NS(=O)(=O)c2cccc3cnccc23)CC1 [Compound 5, N-[1-(cyclohexanecarbonyl)piperidin-4-yl]isoquinoline-5-sulfonamide]",14700 ± 300 nM,> 100 µM,–,–
"Cc1cc2c(S(=O)(=O)N3CCN(C(=O)C4CCCCC4)CC3)cccc2cn1 [Compound 6, Cyclohexyl[4-(3-methylisoquinoline-5-sulfonyl)piperazin-1-yl]methanone]",> 100000 nM,–,100 µM,>100 µM
"O=C(C1CCCCC1)N1CCN(S(=O)(=O)c2cccc3ccccc23)CC1 [Compound 7, Cyclohexyl[4-(naphthalene-1-sulfonyl)piperazin-1-yl]methanone]",3000 ± 100 nM,> 100 µM,–,–
"O=C(C1CCCCC1)N1CCN(S(=O)(=O)c2ccc3ccccc3c2)CC1 [Compound 8, Cyclohexyl[4-(naphthalene-2-sulfonyl)piperazin-1-yl]methanone]",1600 ± 100 nM,> 100 µM,–,–
"O=C(NCCNS(=O)(=O)c1cccc2cnccc12)C1CC1 [Compound 9, N-{2-[(isoquinoline-5-sulfonyl)amino]ethyl}cyclopropanecarboxamide]",6900 ± 200 nM,100 µM,–,–
"O=C(NCCNS(=O)(=O)c1cccc2cnccc12)C1CCC1 [Compound 10, N-{2-[(isoquinoline-5-sulfonyl)amino]ethyl}cyclobutanecarboxamide]",2700 ± 100 nM,100 µM,–,–
"CC(C)(C)C(=O)N1CCN(S(=O)(=O)c2cccc3cnccc23)CC1 [Compound 11, 1-[4-(isoquinoline-5-sulfonyl)piperazin-1-yl]-2,2-dimethylpropan-1-one]",2800 ± 200 nM,100 µM,–,–
"CC1(C(=O)N2CCN(S(=O)(=O)c3cccc4cnccc34)CC2)CCCCC1 [Compound 12, [4-(isoquinoline-5-sulfonyl)piperazin-1-yl](1-methylcyclohexyl)methanone]",2400 ± 10 nM,250 µM,–,–
"CC1CCCCC1C(=O)N1CCN(S(=O)(=O)c2cccc3cnccc23)CC1 (stereo not shown) [Compound 13, [4-(isoquinoline-5-sulfonyl)piperazin-1-yl](2-methylcyclohexyl)methanone]",84 nM,31.2 µM,–,–
"O=C(C1CCCCCC1)N1CCN(S(=O)(=O)c2cccc3cnccc23)CC1 [Compound 14, Cycloheptyl[4-(isoquinoline-5-sulfonyl)piperazin-1-yl]methanone]",830 ± 40 nM,31.2 µM,–,–
"O=C(c1ccccc1)N1CCN(S(=O)(=O)c2cccc3cnccc23)CC1 [Compound 15, [4-(isoquinoline-5-sulfonyl)piperazin-1-yl](phenyl)methanone]",8100 ± 100 nM,> 100 µM,–,>100 µM
"N#Cc1cccc(C(=O)N2CCN(S(=O)(=O)c3cccc4cnccc34)CC2)c1 [Compound 16, 3-[4-(isoquinoline-5-sulfonyl)piperazine-1-carbonyl]benzonitrile]",8600 ± 500 nM,25 µM,–,–
